In test [1] the test system is GLUT4 promoter. Kind of test: GLUT4-P-Luc promoter reporter (luciferase) assay in primary rat adipocytes (PRA). In kind it is cell-based. An excerpt: (§1) Expression vectors and luciferase promoter reporters. Expression vectors, pC-DY, pM-DY, and pN-DY, baring the C-terminus, middle domain, and N-terminus of human AHNAK in c-myc-tagged pCDNA3 (Hashimoto, Amagai et al. 1993; Nie, Ning et al. 2000), were a generous gift of Dr. Hashimoto (Department of Dermatology, Kurume University School of Medicine, Kurume, Fukuoka, Japan). The rat GLUT4 promoter (GLUT4-P) reporter and a derived series of progressively 5′-deleted promoter reporters, have been described by us previously (Armoni, Harel et al. 2005). A control synthetic reporter 3×IRS-LUC, containing three repeats of an insulin response element consensus motif in pGL2 was provided by Dr. Eric Tang (Tang, Nunez et al. 1999).
Cell cultures and transient expression assays. […]
(§2) PRA were transfected by electroporation with 2 μg of GLUT4 promoter reporter DNA, 0-5 μg of expression vectors and 0.5 μg of pCMV-β-galactosidase. […] Within each experiment, values were expressed as a percentage of the basal GLUT4 promoter activity, i.e. the activity obtained in cells transfected with promoter reporter alone. Cell viability was assessed by trypan blue exclusion. Each experiment was repeated three to four times, with each sample analyzed in quadruplicates.

The subject of test [2] is insulin response element (3×IRS-LUC). In words: 3×IRS-LUC synthetic promoter reporter assay in PRA. The class given is cell-based, rat. Particulars: PRA transfected with AHNAK fragments, 24 hrs.
Source text: as §1, §2

In another test the test system is AHNAK. Kind of test: Immunofluorescence of AHNAK cellular distribution in HEK cells. In kind it is cell-based, human. The conditions noted are these: serum free medium, 24 hrs, insulin 100 nM alone or with LY 20 μM. The method, then: Immunofluorescence Studies—Human embryonic kidney (HEK) cells were plated in 60 mm plates at a density of 500,000 cells/plate. Cells were incubated for 24 h at 37° C. The next day, cells were washed with magnesium-containing phosphate-buffered saline and transferred to serum-deprived medium supplemented with 2% BSA either with or without Insulin (100 nM). After 24 h, the cells were fixed in 4% paraformaldehyde and stained for indirect immunofluorescence using an anti-AHNAK primary antibody (SC 81048), followed by a FITC-conjugated goat anti-mouse secondary antibody. The nuclei were stained by DAPI.

Test [3] has as its system GLUT4 promoter. Kind of test: GLUT4-P-Luc promoter reporter (luciferase) assay in H9C2 myotubes. Particulars: 0-100 μM arachidonic acid, 24 h. The class given is cell-based, rat.
The subject of a further test is GLUT4 protein. Kind of test: GLUT4 protein level in PRA by Western immunoblotting. The class given is cell-based, rat. Particulars: NT-transfected PRA, arachidonic acid 100 μM, 24 hrs. The method, then: AHNAK siRNA. Double-stranded RNAs (dsRNAs) targeting the rat AHNAK were purchased from Dharmacon (Dharmacon, Inc, California, USA). The siRNA (On TARGETplus SMARTpool L-101672-01-0010, Rat Ahnak, XM—574618) used in the experiments is a mixture consisting of the siRNAs of the sequences set forth in SEQ ID NO:1 to SEQ ID NO:8.
PRA were transfected by electroporation with the dsRNA (40 ng in PBS, pH=7.4) as described above. After 24 hrs, cells were harvested and total RNA and protein were obtained. Scrambled non targeting duplex RNA (NT-siRNA) was transfected as control. AHNAK silencing was assessed by QRT-PCR, and normalized to 18S rRNA. GLUT4 expression at protein level was assessed by Western immunoblotting as detailed by us before (Armoni et al., 2002; Armoni et al., 2005).

The record followed here is US20110015123A1, “Modulation of GLUT4 Gene Promoter activity BY AHNAK” (Technion Research and Developmet Foundation Ltd., priority 2008, published 2011).

Entries after “also recorded” stand apart in the source; their conditions may differ.

On to “insulin: Insulin purchased from SIGMA, Israel”, for which the “effect on AHNAK fragment repression of GLUT4-P” value in the test with GLUT4 promoter [1] (PRA transfected with AHNAK fragments, 24 hrs) is “partially rescued the activity”. In addition, the “effect on AHNAK repression of 3×IRS-LUC reporter” value in test [2] is “partially rescued the activity; also recorded: curtailed this repression”. Moreover, the AHNAK subcellular distribution entry in the test with AHNAK is on record as “most of it translocates to the cytosel”.

For the compound `CCCCC/C=C\C/C=C\C/C=C\C/C=C\CCCC(=O)O` [arachidonic acid], the “effect on transcription from GLUT4-P” value in the test on GLUT4 promoter [3] is on record as “dose-dependently repressed transcription from GLUT4-P”; in the test with GLUT4 promoter [1] (PRA, ambient arachidonic acid levels, 24 h), “dose-dependently repressed transcription from GLUT4-P”. In addition, in the test with GLUT4 protein, the “decrease in GLUT4 protein levels” value is ~40%±3.

As for `O=c1cc(N2CCOCC2)oc2c(-c3ccccc3)cccc12` [LY], the AHNAK subcellular distribution result in the test with AHNAK is “AHNAK nuclear re-distribution”.
